Patent US20090196829A1, “MRI CONTRAST AGENTS AND RELATED METHODS OF USE” (Northwestern University, priority 2008, published 2009)
Where “and” joins values, the source holds several entries; their conditions need not be identical. Equal values may be shown once.

Assays:
[1] = at 64 MHz; cited from earlier work
[2] = T1 measurement and relaxivity of agents in solution, MR phantoms at 4.7T, 200 MHz; format: physicochemical; details: nanopure water, per Gd
Method: In experiments conducted during the course of development of the present invention, MR phantoms were imaged using a 4.7T, 200 MHz Bruker Biospec MR Imager with decreasing concentrations of 5, 6 and Gd-DOTA as indicated in FIG. 2A. T1 measurements were obtained and relaxivities were calculated for each compound using the T1 data. Relaxivities for 5, 6 and Gd-DOTA were calculated to be 5.3, 5.1, and 1.0 mM^−1 s^−1 at 200 MHz respectively. At high magnetic field strengths there remained a 5 fold increase in relaxivity per Gd(III) which indicated a 31-37 fold increase in molecular relaxivity.
6, 5 and DOTA-Gd were dissolved in nanopure water at decreasing concentrations and imaged in 1 mm capillary tubes. Concentrations (μM) were as follows from left to right for 6 (73.3, 54.9, 36.6, 22.0, 11.0, 0.0) for 5 (82.1, 61.6, 41.0, 24.6, 12.3, 0.0) and for DOTA-Gd (82.7, 62.0, 41.4, 24.8, 12.4, 0.0). T1 weighted (TR/TE=300/18.3 ms) spin-echo images were acquired at 200 MHz. […]
T1 values were determined using the following equation.
Where SI is the measured signal intensity for each TR, S0 is the signal intensity at infinity.
Relaxivities for each compound were calculated using the T1 data and gadolinium concentrations as determined by ICP-MS analysis. […]

[3] = system: NIH-3T3 cells; experiment: T1 measurement from T1 weighted cell pellet images of labeled cells; format: cell-based, mouse; details: NIH-3T3 cell pellets, 4 hours incubation
Method: In experiments conducted during the course of development of the present invention, 5 and 6 were used to label cells for MR imaging at equal molar concentrations of Gd(III) (FIG. 2B). […] NIH-3T3 cells were incubated for 4 hours at 37° C. and 5% CO2 in complete media containing 5, 6, and Gd-DOTA. The cells were rinsed 3 times in phosphate buffered saline and pelleted in 1 mm capillary tubes. Unlabeled cell pellets were used as a control. T1 values measured for 5, 6, Gd-DOTA and the control cell pellet were 2067.7, 2178.4, 3009.4, and 3480.3 msec respectively. […] Cell studies were done using NIH-3T3 cells cultured in Dulbecco's Modified Eagle's Media supplemented in 10% calf bovine serum and incubated at 37° C., 5% CO2. Cells were incubated with approximately equimolar concentrations of Gd for 4 hours in a 6 well plate. The cells were rinsed 2× with PBS and trypsinized. In 1.5 mL tubes, the cells were fixed for 15 min in 10% buffered neutral formalin and rinsed 2× in PBS. The cells were then pelleted in flame sealed 1 mm capillary tubes. T1 weighted (TR/TE=800/18.3 ms) spin-echo images were acquired at 200 MHz. T1 measurements were obtained by collecting a series of images using a standard spin-echo sequence with a TE of […] and a series of TR (91.5, 200, 300, 400, 500, 750, 1200, 2500, 5000, 10000), 6 signal averages, FOV 2×2 cm, collected into a matrix of 256×128.

Compound	relaxivity [1] [mM⁻¹ s⁻¹]	Relaxivity (linear regression of 1/T1 vs. Gd concentration) [2] [mM⁻¹ s⁻¹]	T1 ([3]; approximately equimolar Gd(III) (7.80, 8.95, 9.00 mM Gd), 200 MHz)	% difference from control (T1) ([3]; vs unlabeled control pellet) [%]
CNC[C@H](O)[C@@H](O)[C@H](O)[C@H](O)CO.O=C([O-])CN1CCN(CC(=O)[O-])CCN(CC(=O)O)CCN(CC(=O)[O-])CC1.[Gd+3] [Dotarem]	3.4			
O=C([O-])CN1CCN(CC(=O)[O-])CCN(CC(=O)O)CCN(CC(=O)[O-])CC1.[Gd+3] [Gd-DOTA]		1.0	3009.4 ms and 3009.44 ms	13.53
